Measured values published in patent US9682928B2 (NeuroPro Therapeutics, Inc., priority 2009, dated 2017).
Read-outs that look alike come from different tables or passages of the source.

Legend:
Male Rj: NMRI mice = experiment: Formalin paw test (late phase) in the mouse; type: in vivo
Description: The method described herein detects analgesic/anti-inflammatory activity, generally used to test compounds for pain relief, in particular diabetic neuropathy or nociceptive neuropathy. See Wheeler-Aceto, et al. (1991) Psychopharmacology 104: 35-44.
Mice were given an intraplantar injection of 5% formalin (25 μl) into the posterior left paw. This treatment induces paw licking in control animals. Mice were briefly observed at 1 minute intervals between 15 and 50 minutes after the injection of formalin and the number of occasions that the mice were observed licking the injected paw was recorded. There were 10 mice per group and the test was performed “blind.”
The experiment included 11 groups. Data was analyzed by comparing treated groups with vehicle control using unpaired Mann-Whitney U tests.
Gabapentin (100 mg/kg i.p.) administered under the same experimental conditions, was used as reference substance. The experiment included several groups. Data was analyzed by comparing treated groups with vehicle control using unpaired Mann-Whitney U tests.

adult mice (C57/B16) = experiment: Mesial temporal lobe epilepsy model (mice), hippocampal discharges; type: in vivo, mouse; conditions: 50 mg/kg for NTP-2014 and NTP-2026; 150 mg/kg for NTP-2024, NTP-2006, NTP-1007, NTP-1003
Description: Antiepileptic protocol: Up to eight adult mice (C57/B16) are injected with kainate (1 nmol in 50 nl) and are implanted with a bipolar electrode in the dorsal hippocampus using stereotaxic techniques under general anesthesia. […] Drug conditions are counter-balanced, the animals being used as their own controls. Digital EEG recordings are performed in freely moving animals for 20 min pre-injection and 80 min post-injection. The effects of the injected compound are compared versus vehicle injections and reference period (pre-dose). Upon completion of the experiment, standard histological analysis are performed to verify electrode location, cell losses in CA1, CA3 and hilus, as well as dentate gyrus dispersion. Only animals with all characteristics of MTLE are used in data analysis. […] The results below are normalized to the pre-dose condition for each of the treatment group including DMSO and saline vehicle controls. Doses of test article compounds were 50 mg/kg for NTP-2014 and NTP-2026 and 150 mg/kg for NTP-2024, NTP-2006, NTP-1007, and NTP-1003. Therefore the bumetanide, furosemide, piretanide, azosemide, and torsemide esters and amide analogs described herein may be used in therapeutic methods to treat seizures.

mouse = experiment: Formalin test (acute/early and late phase) in mice; type: in vivo; conditions: 150 mg/kg i.p., mice
Description: The formalin test was performed according to the method of Tjølsen, et al. (October 1992) “The formalin test: an evaluation of the method.” Pain 51(1): 5-17. An injection of 0.5% formalin is made into the plantar region of the right hind paw of a mouse. This elicits a distinct behavioral profile in response to the formalin injection characterized by the mouse licking the affected paw. The behavior is characteristically biphasic in nature. For example, immediately following the injection the mouse intensely licks the paw for approximately 5-10 minutes (“min.”) This initial behavior was considered phase 1 (acute) and is thought to be mediated primarily by chemical activation of local C-fibers. The acute phase is followed by a brief latent (usually <5 min) period where there is little or no behavioral activity. A more prolonged (about 20 to 30 min) period of licking then ensues which constitutes phase 2 of the response (late phase). See e.g., Tjølsen, et al. (Feb. 7, 1991) “Antinociceptive effect of paracetamol in rats is partly dependent on spinal serotonergic systems. Eur J Pharmacol. 193(2): 193-201 and Tjølsen, et al. (June 1991) Lesions of bulbo-spinal serotonergic or noradrenergic pathways reduce nociception as measured by the formalin test. Acta Physiol Scand. 142(2): 229-36, the disclosures of each of which are hereby incorporated by reference in its entirety.
It is in these tubes that mice are later observed for the licking activity for the duration of the experiment. Following the conditioning, the test substance was administered i.p. in a dose equivalent to the MES ED50 and the mouse returned to its home tube. At the TPE of the drug, the formalin is injected subdermally into the plantar surface of the right hind foot. It is given in a volume of 20 μl with a 27 gauge stainless steel needle attached to a Hamilton syringe. The bevel of the needle was placed facing down toward the skin surface. […] The cumulative length of licking for each 2-min time period was measured. […] Animals are euthanized following the conclusion of the experiment.
Area under the curve (AUC) and subsequent percent of control for drug-treated animal groups is determined using the GraphPad Prism Version 3.03. Total AUC was calculated for both the test and control groups for both the acute and inflammatory phases. The AUC for individual animals for each phase was also calculated and converted to percentage of total AUC of control. The average and S.E.M. for both the drug treated and control percentages were calculated and tested for significant difference.

Na+K+Cl− co-transporter = target: T1, Na+K+Cl− co-transporter (Rattus norvegicus, UniProt E9PTX9); experiment: Na+K+Cl− cotransporter assay, 86Rb uptake in A7r5 cells; type: cell-based; conditions: 10 minutes at 37° C.; for inhibition at 10 µM: read-out: % Inhibition of Control Values; for remaining activity at 10 µM: read-out: % of Control Value
T1 construct: endogenous in cells; host or cells: A7r5 cells
T1 sequence (E9PTX9 1-1203): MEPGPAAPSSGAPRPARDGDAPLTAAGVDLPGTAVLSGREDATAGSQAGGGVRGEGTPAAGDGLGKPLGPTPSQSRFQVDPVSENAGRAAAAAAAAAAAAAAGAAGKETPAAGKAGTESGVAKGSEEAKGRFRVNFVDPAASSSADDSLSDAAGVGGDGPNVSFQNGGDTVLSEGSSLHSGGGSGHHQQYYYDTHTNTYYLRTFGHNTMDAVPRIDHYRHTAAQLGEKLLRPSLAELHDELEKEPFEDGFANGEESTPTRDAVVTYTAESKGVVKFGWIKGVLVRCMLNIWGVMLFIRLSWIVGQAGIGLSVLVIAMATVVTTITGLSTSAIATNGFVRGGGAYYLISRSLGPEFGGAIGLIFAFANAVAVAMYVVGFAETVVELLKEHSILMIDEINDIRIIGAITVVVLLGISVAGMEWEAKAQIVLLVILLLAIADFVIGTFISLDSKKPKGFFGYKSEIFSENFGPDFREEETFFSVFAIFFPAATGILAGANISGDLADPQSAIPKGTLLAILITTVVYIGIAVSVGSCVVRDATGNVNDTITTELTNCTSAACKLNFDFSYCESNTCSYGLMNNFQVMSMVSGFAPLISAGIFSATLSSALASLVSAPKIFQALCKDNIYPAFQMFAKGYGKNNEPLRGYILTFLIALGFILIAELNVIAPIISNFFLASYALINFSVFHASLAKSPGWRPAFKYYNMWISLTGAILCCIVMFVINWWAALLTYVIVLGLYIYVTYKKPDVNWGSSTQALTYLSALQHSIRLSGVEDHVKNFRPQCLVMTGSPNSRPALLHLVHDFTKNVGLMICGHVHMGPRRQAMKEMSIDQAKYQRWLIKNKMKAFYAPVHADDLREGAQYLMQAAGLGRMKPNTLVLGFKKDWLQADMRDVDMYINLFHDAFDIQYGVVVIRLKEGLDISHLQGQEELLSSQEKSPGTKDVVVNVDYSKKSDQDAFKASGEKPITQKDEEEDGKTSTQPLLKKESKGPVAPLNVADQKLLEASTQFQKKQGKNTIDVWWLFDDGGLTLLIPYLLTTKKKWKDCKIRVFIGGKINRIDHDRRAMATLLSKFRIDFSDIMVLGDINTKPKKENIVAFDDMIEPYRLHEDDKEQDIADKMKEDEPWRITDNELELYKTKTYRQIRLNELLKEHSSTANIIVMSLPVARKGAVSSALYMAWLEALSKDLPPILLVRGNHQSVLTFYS
Description: Na^+K^+Cl^− co-transporter activity was measured in vitro in A7r5 cells by measuring their uptake of ^86Rb (0.2 μCi) in 10 minutes at 37° C. as detected by scintillation counting. See Chassande, et al. (1988) “The Na^+/K^+/Cl^− Cotransport in C6 glioma cells. Properties and role in volume regulation.” Eur. J. Biochem. 171: 425433.

Sprague-Dawley rats = experiment: Kainic acid induced seizures in rats; type: in vivo, rat; design: key to Seizures Severity Mean ± SD (grade 0 to IV): seizure grade 0 = no response to IV = status epilepticus; conditions: 20 μmoles/kg IP; for Seizures Severity Mean ± SD (grade 0 to IV) / Seizures Mean ± SD (1 = yes, 0 = no): KA 15 mg/kg i.p.; for Seizures Mean ± SD (1 = yes, 0 = no): 2 hours; for change in vivo at 20 µmol/kg: Rattus norvegicus, 2 h, vs DMSO control
Description: Formulation of kainic acid was performed by NTS as a stock solution by reconstituting kainic acid with (100%) saline that was stored at 4° C. Vehicle control received saline solution. […] The research investigators were blinded to the treatment groups.
Solutions were prepared fresh daily just prior to use; dosing of all 10 rats with any given compound occurred on a single day after preparing the dosing solution. […] Unused remaining dosing solutions were stored frozen.
Animals were maintained in a temperature- and light-controlled environment in accord with the principles and procedures of the National Institutes of Health Guidelines for Care and Use of Laboratory Animals. Seizures were induced in adult, male Sprague-Dawley rats (260-300 g) by injection of KA (15 mg/kg, i.p.). In addition, animals were injected with test compounds following kainic acid to determine the effects on protection from epilepsy. Animals were monitored behaviorally for seizures for 2 hours after injection.
Seizure activity was initially characterized as either yes (1) or no (0) within a 2 hour period following injection of KA. A seizure severity grade was assigned based on the maximal response achieved on a scale from 0 to IV as follows: 0, no response; I, single limb clonus and scratching; II, multiple limb clonus and staggering gait; […], limb clonus, tonic extension of limbs and falling; IV, continuous grade III seizures for longer than 30 min (status epilepticus).
The results were expressed as the mean±standard deviation (SD). The significance of difference in the epileptic data was analyzed using a one-way analysis of variance (ANOVA) followed by Fisher's post hoc test. Repeated-measures ANOVA were computed on the monitoring data and the significance of the difference among groups were evaluated by Fisher's post hoc test.
All groups were subjected to kainic acid.
The induction of seizures in rats with kainic acid was determined as either yes seizures (1) or no seizures (0).

[1] = read-out: Percent reduction in Seizures
[2] = read-out: Percent reduction in Seizures Severity

inhibition at 10 µM (Na+K+Cl− co-transporter) [%] | remaining activity at 10 µM (Na+K+Cl− co-transporter) [%] | SMILES | Licking Score % Pain Decrease (Male Rj: NMRI mice; 50 μmol/kg i.p.) [%] | Licking Score % Pain Decrease (Male Rj: NMRI mice; 250 μmol/kg i.p.) [%] | Licking Score % Pain Decrease (Male Rj: NMRI mice; 500 μmol/kg i.p.) [%] | Anti-inflammatory and analgesic effects in formalin paw test (FIG. 16) (Male Rj: NMRI mice; 50, 250, 500 μmole/kg) | Licking Score (15 to 50 minutes post-formalin injection) % Change from Control (Male Rj: NMRI mice; i.p. 30 minutes before the test, 50 μmol/kg (NTP-2006 23.9, NTP-2024 21.7, NTP-1007 19.3, NTP-2014 21, NTP-2026 23.1 mg/kg)) [%] | Licking Score (15 to 50 minutes post-formalin injection) % Change from Control (Male Rj: NMRI mice; i.p., 250 μmol/kg (NTP-2006 119, NTP-2024 108, NTP-1007 96.5, NTP-2014 105, NTP-2026 116 mg/kg)) [%] | Licking Score (15 to 50 minutes post-formalin injection) % Change from Control (Male Rj: NMRI mice; i.p., 500 μmol/kg (NTP-2006 239, NTP-2024 217, NTP-1007 193, NTP-2014 210, NTP-2026 231 mg/kg)) [%] | Cumulative duration of hippocampal discharges (adult mice (C57/B16)) | Number of hippocampal discharges (adult mice (C57/B16)) | % of Control, Acute (mouse) [%] | % of Control, Late Phase (mouse) [%] | Treated (AUC of licking time), Acute (mouse) | Treated (AUC of licking time), Late Phase (mouse) | Seizures Severity Mean ± SD (grade 0 to IV) (Sprague-Dawley rats) | Seizures Mean ± SD (1 = yes, 0 = no) (Sprague-Dawley rats) | change in vivo at 20 µmol/kg (Sprague-Dawley rats; [1]) [%] | change in vivo at 20 µmol/kg (Sprague-Dawley rats; [2]) [%]
– | – | CCN(CC)C(=O)c1cc(S(N)(=O)=O)c(Cl)cc1NCc1ccco1 [NTP-1007, N,N-Diethyl 5-Aminosulfonyl-4-chloro-2-[(2-furanylmethyl)amino]benzamide] | 9 | 13 | 66 | show anti-inflammatory and analgesic effects | −9 | −13 | −66 | decreased | decreased | – | – | – | – | – | – | – | –
17 | 82.8 | CCCCNc1cc(C(=O)N(Cc2ccccc2)Cc2ccccc2)cc(S(N)(=O)=O)c1Oc1ccccc1 [NTP-2008, N,N-Dibenzyl 3-Aminosulfonyl-5-butylamino-4-phenoxybenzamide] | – | – | – | – | – | – | – | – | – | 63.69 | 10.66 | 73.94 | 66.42 | 0.1000 ± 0.3162 | 0.1000 ± 0.3162 | -88.9 | -95.8
13 | 87.4 | CCCCNc1cc(C(=O)OCC(=O)N(C)C)cc(S(N)(=O)=O)c1Oc1ccccc1 [NTP-2011, N,N-Dimethylaminocarbonylmethyl 3-Aminosulfonyl-5-butylamino-4-phenoxybenzoate] | – | – | – | – | – | – | – | – | – | 53.37 | 0.72 | 78.55 | 5.43 | 0.3000 ± 0.6749 | 0.2000 ± 0.4216 | -77.8 | -87.5
35 | 65.5 | CCCCNc1cc(C(=O)OCOC(=O)C(C)(C)C)cc(S(N)(=O)=O)c1Oc1ccccc1 [NTP-2012, t-Butylcarbonyloxymethyl 3-Aminosulfonyl-5-butylamino-4-phenoxybenzoate] | – | – | – | – | – | – | – | – | – | 48.5 | 0.49 | 75.07 | 5.08 | 0.2000 ± 0.4216 | 0.2000 ± 0.4216 | -77.8 | -91.7
